Columns and labels:
[1] = tested on: mice administered with beta-amyloid; assay: passive avoidance test (learning and memory-retention ability of mice); format: in vivo; details: mice given compound and beta-amyloid (1-42); 24 h after training; maximum 300 seconds; average of 10 mice; FIG. 1
Description: Four groups of 10 mice aged 4-5 weeks, weighing 20-25 g were used in the experiment. Each sample was administered with 1% DMSO and 1% CMC using a Sonde once a day (samples: A—physiological salin solution; B—beta-amyloid; C—cinnamic acid dimer (example 1) and beta-amyloid). After injecting […] of each sample to the cerebral ventricle 3 consecutive days, passive avoidance test was conducted on the first and second day for following the last injection. All data was attained by the average of 10 mice.
In order to examine the learning and memory-retention ability of a mouse, a passive avoidance test was carried out in accordance with the method described in Song et al, J. Neurochem., 1998, 71, 875. A passive avoidance chamber equipped with a light room and a dark room was prepared, wherein the floor of the dark room was designed to deliver an electrical shock to the test animal. First, a mouse was put in the light room and, upon entering the dark room, an electrical shock of 0.25 mA was given to the animal for 1 second. […] Then, the time it took for the mouse to enter the dark room was measured as a passive avoidance time. The maximum restriction time was set at 300 seconds, i.e., in cases where the mouse took more than 300 seconds to enter the dark room, the passive avoidance time was determined to be 300 seconds.

Spraque-Dawley rats = assay: oral toxicity test of cinnamic acid dimers; format: in vivo
Description: Twenty female and twenty male Spraque-Dawley rats aged 4 weeks were divided into four groups including 5 female and 5 male rats, after being raised in a vivarium of a temperature of 22±3° C., a relative humidity of 50±10%, an illumination of 150-300 Lux for 1 week.
The cinnamic acid dimers prepared in Example 1 were dissolved in corn oil, and the rats of the 4 groups were orally administered with the solution at a dose of 300, 1,000, 3,000 and 10,000 mg/kg once. […] In addition, the rats were killed on the seventh day after administration, dissected, and internal organs were examined with the unaided eye. Daily weight change was measured from the administration day and thus the weight decrease of animals attributed to cinnamic acid dimers was observed.

`COc1cc(C=CC(=O)O)ccc1OCCOc1ccc(C=CC(=O)O)cc1OC` [Example 1, 1,2-di[2-methoxy-4-(2-carboxylvinyl)]phenoxyethane] was tested, and the “step-through latency (passive avoidance time) compared with mice administered with beta-amyloid only” value [1] was “significantly higher”, the “pathological changes of internal organs at dissection” value (Spraque-Dawley rats; group administered with 5,000 mg/kg or less, seventh day after administration, unaided eye) was “No pathological changes were seen with the naked eye” and the LD50 (Spraque-Dawley rats; single oral dose in corn oil, observed for 7 days, both males and females) was 5,000 mg/kg.

— US7799830B2, “Cinnamic acid dimers, their preparation and the use thereof for treating neurodegenerative disease” (Korea Institute of Science and Technology, priority 2002, dated 2010)
